Results reported in paper PMC2748101, “Transcriptome analysis of the responses of Staphylococcus aureus to antimicrobial peptides and characterization of the roles of vraDE and vraSR in antimicrobial resistance” (BMC Genomics, 2009).
≈ marks a conversion by molar mass, not a printed value. Read-outs that look alike come from different tables or passages of the source. Where a SMILES comes first, the peptide text is derived from it. Bridges are numbered along the chain shown (N, C = ends). Where no end group is shown, it is not given here. [ ]: non-standard residue; d: D form. The star is where a group is joined. Ileψ(thiazoline)Cys = CC[C@H](C)[C@H](N)C1=N[C@H](C(=O)*)CS1; dOrn = NCCC[C@@H](N)C(=O)O

Columns and labels:
ΔvraSR/S. aureus Newman [1] = settings: for Difference in MIC (increased sensitivity), ΔvraSR mutant versus wild-type / MIC: Mueller-Hinton broth; for MIC: ΔvraSR/S. aureus Newman, 16-24 h, 37°C, two-fold dilution series, performed twice
S. aureus Newman [2] = test: qRT-PCR of gene induction in treated wild-type cells; format: cell-based, Staphylococcus aureus; settings: 10 min, 5 × MIC (temporin-L-NH2 subinhibitory 2 μg/ml, pentaglycine 20 μg/ml), treated/untreated, mean of three experiments (SD)
S. aureus Newman [3] = system: S. aureus Newman
ΔvraDE/S. aureus Newman [4] = settings: Mueller-Hinton broth; for MIC: ΔvraDE/S. aureus Newman, 16-24 h, 37°C, two-fold dilution series, performed twice
S. aureus RN4220 [5] = settings: Mueller-Hinton broth, 16-24 h, 37°C, two-fold dilution series, performed twice
ΔvraSR/ RN4220 [6] = settings: Mueller-Hinton broth, 16-24 h, 37°C, two-fold dilution series, performed twice
[7] = system: wild-type S. aureus Newman; format: cell-based, Staphylococcus aureus
ΔvraDE/ RN4220 [8] = settings: Mueller-Hinton broth, 16-24 h, 37°C, two-fold dilution series, performed twice
ΔvraSR/S. aureus Newman [9] = test: microbe, parasite or virus in culture; settings: Staphylococcus aureus
ΔvraDE/S. aureus Newman [10] = test: microbe, parasite or virus in culture; settings: Staphylococcus aureus
S. aureus RN4220 [11] = test: microbe, parasite or virus in culture; settings: Staphylococcus aureus
ΔvraSR/ RN4220 [12] = test: microbe, parasite or virus in culture; settings: Staphylococcus aureus
ΔvraDE/ RN4220 [13] = test: microbe, parasite or virus in culture; settings: Staphylococcus aureus
[14] = S. aureus Newman, Mueller-Hinton broth, 16-24 h, 37°C, two-fold dilution series, performed twice

In the case of “hBD3 (GIINTLQKYYCRVRGGRCAVLSCLPKEEQIGKCSTRGRKCCRRKK; UniProt P81534 23-67, looked up)”, the “Effect of the ΔvraSR mutation on sensitivity” value (ΔvraSR/S. aureus Newman [1]; MIC, 100%, 50% (LL-37, nisin, Pep5) or 25% (hBD3) Mueller-Hinton broth) is reported as “did not affect the sensitivity”.
For Teicoplanin, the “Fold induction SA0205” value (S. aureus Newman [2]) was 35.7 (6.9) fold, the “Fold induction groEL” value (S. aureus Newman [2]) was 3.0 (0.3) fold and the “Fold induction prsA” value (S. aureus Newman [2]) was 32.1 (4.1) fold. The “Fold induction vraD” value (S. aureus Newman [2]) was 2.5 (0.3) fold, the MIC (S. aureus Newman [3]; [14]) was 0.5 µg/mL and the “Difference in MIC (increased sensitivity), ΔvraSR mutant versus wild-type” value (ΔvraSR/S. aureus Newman [1]) was 4 fold. The MIC (ΔvraSR/S. aureus Newman [1]) was 0.125 µg/mL, the MIC (ΔvraDE/S. aureus Newman [4]) was 0.5 µg/mL and the MIC (S. aureus RN4220 [5]) was 0.25 µg/mL. For the same molecule, the MIC (ΔvraSR/ RN4220 [6]) was 0.06 µg/mL.
In the case of CO/N=C(\C(=O)N[C@@H]1C(=O)N2C(C(=O)O)=C(COC(C)=O)CS[C@H]12)c1csc(N)n1 [cefotaxime], the “Growth of wild-type strain in the presence of the antimicrobial” value [7] is reported as “grew significantly”.
CC[C@H](C)[C@H](N)C1=N[C@H](C(=O)N[C@@H](CC(C)C)C(=O)N[C@H](CCC(=O)O)C(=O)N[C@H](C(=O)N[C@H]2CCCCNC(=O)[C@H](CC(N)=O)NC(=O)[C@@H](CC(=O)O)NC(=O)[C@H](Cc3cnc[nH]3)NC(=O)[C@@H](Cc3ccccc3)NC(=O)[C@H]([C@@H](C)CC)NC(=O)[C@@H](CCCN)NC2=O)[C@@H](C)CC)CS1 [Bacitracin] ({Ileψ(thiazoline)Cys}-L[dE]IK[dOrn]I[dF]H[dD]N; lactam 4-C) was tested, and the “Fold induction SA0205” value (S. aureus Newman [2]) was 51.4 (0.8) fold, the “Fold induction groEL” value (S. aureus Newman [2]) was 3.6 (0.1) fold and the “Fold induction prsA” value (S. aureus Newman [2]) was 27.9 (4.5) fold. The “Fold induction vraD” value (S. aureus Newman [2]) was 467.5 (15.3) fold, the “Fold induction SA0205” value (S. aureus Newman [2]; listed as bacitracin) was 30-50 fold and the “Fold induction prsA” value (S. aureus Newman [2]; listed as bacitracin) was 30-50 fold. For the same molecule, the “Fold induction vraD” value (S. aureus Newman [2]; listed as bacitracin) was ~500 fold, the MIC (S. aureus Newman [3]; [14]) was 20 µg/mL (≈ 14.1 µM) and the “Difference in MIC (increased sensitivity), ΔvraSR mutant versus wild-type” value (ΔvraSR/S. aureus Newman [1]) was 4 fold. The MIC (ΔvraSR/S. aureus Newman [1]) was 5 µg/mL (≈ 3.51 µM), the “Difference in MIC, ΔvraDE mutant versus wild-type” value (ΔvraDE/S. aureus Newman [4]) was “about 10 fold” and the MIC (ΔvraDE/S. aureus Newman [4]) was 2.5 µg/mL (≈ 1.76 µM). For the same molecule, the MIC (S. aureus RN4220 [5]) was 20 µg/mL (≈ 14.1 µM), the MIC (ΔvraSR/ RN4220 [6]) was 5 µg/mL (≈ 3.51 µM) and the MIC (ΔvraDE/ RN4220 [8]) was 2.5 µg/mL (≈ 1.76 µM).
CN[C@H](CC(C)C)C(=O)N[C@H]1C(=O)N[C@@H](CC(N)=O)C(=O)N[C@H]2C(=O)N[C@H]3C(=O)N[C@H](C(=O)N[C@H](C(=O)O)c4cc(O)cc(O)c4-c4cc3ccc4O)[C@H](O)c3ccc(c(Cl)c3)Oc3cc2cc(c3O[C@@H]2O[C@H](CO)[C@@H](O)[C@H](O)[C@H]2O[C@H]2C[C@](C)(N)[C@H](O)[C@H](C)O2)Oc2ccc(cc2Cl)[C@H]1O [Vancomycin] gave an MIC (S. aureus Newman [3]) of 1 µg/mL (≈ 0.69 µM), an MIC (ΔvraSR/S. aureus Newman [9]) of 1 µg/mL (≈ 0.69 µM) and an MIC (ΔvraDE/S. aureus Newman [10]) of 1 µg/mL (≈ 0.69 µM). The MIC (S. aureus RN4220 [11]) was 1 µg/mL (≈ 0.69 µM), the MIC (ΔvraSR/ RN4220 [12]) was 0.5 µg/mL (≈ 0.345 µM) and the MIC (ΔvraDE/ RN4220 [13]) was 1 µg/mL (≈ 0.69 µM).
O=C(O)CN(CCOCCOCCN(CC(=O)O)CC(=O)O)CC(=O)O [EGTA] was tested, and the “Growth of wild-type strain in the presence of the antimicrobial” value [7] was “grew significantly”.
“KNLRRIIRKIIHIIKKYG-NH2 [Ovispirin-1-NH2]” showed an MIC (S. aureus Newman [3]; [14]) of 20 µg/mL, an MIC (ΔvraSR/S. aureus Newman [1]) of 10 µg/mL and an MIC (ΔvraDE/S. aureus Newman [4]) of 20 µg/mL. It also gave an MIC (S. aureus RN4220 [5]) of 20 µg/mL, an MIC (ΔvraSR/ RN4220 [6]) of 10 µg/mL and an MIC (ΔvraDE/ RN4220 [8]) of 20 µg/mL.
